These results are taken from DBAASP.

≈ marks a conversion by molar mass, not a printed value. A value given as a limit tells only on which side of the number the result lay.

A word on the MIC: it is the lowest concentration found to suppress growth.

Common to all, as to experiment: ≥ marks a high value that may be exact or a test limit, other limits are often not marked, values filed in µg/mL are converted to µM
The test system of assay [1] is Acinetobacter baumannii NR-17784.
Assay [2] deals with Pseudomonas aeruginosa ATCC BAA-1744.
The subject of assay [3] is Pseudomonas aeruginosa 1125.
The subject of assay [4] is Pseudomonas aeruginosa ATCC 15442.
Assay [5] has as its system Pseudomonas aeruginosa ATCC 9027.
For assay [6], the system named is Pseudomonas aeruginosa 1017.
In assay [7] the test system is Pseudomonas aeruginosa 1131.
Assay [8] relates to Acinetobacter baumannii ATCC BAA-1605.
Assay [9] relates to Acinetobacter baumannii ATCC BAA-747.
Assay [10] concerns Pseudomonas aeruginosa ATCC 10145.
For assay [11], the system named is Acinetobacter baumannii NR-13375.
Assay [12] has as its system Pseudomonas aeruginosa ATCC 9721.
The subject of assay [13] is Pseudomonas aeruginosa ATCC 27853.
For assay [14], the system named is Pseudomonas aeruginosa ATCC 25619.
Assay [15] has as its system Pseudomonas aeruginosa 1109.
Assay [16] relates to Acinetobacter baumannii NR-9667.
Assay [17] has as its system Acinetobacter baumannii ATCC 19606.
Assay [18] relates to Pseudomonas aeruginosa ATCC 35032.
The test system of assay [19] is Acinetobacter baumannii NR-13382.
Assay [20] relates to Streptococcus sanguinis ATCC 10556.
The subject of assay [21] is Streptococcus gordonii ATCC 10558.
Assay [22] has as its system Streptococcus oralis ATCC 9811.
Assay [23] has as its system Streptococcus mutans UA159.
Assay [24] concerns Actinomyces viscosus ATCC 15987.
Assay [25] relates to Streptococcus gordonii DL1.
Assay [26] relates to Lactobacillus acidophilus ATCC 14931.
In assay [27] the test system is Lacticaseibacillus casei ATCC 393.
Assay [28] has as its system Limosilactobacillus fermentum ATCC 9338.
The test system of assay [29] is Actinomyces naeslundii ATCC 12104.
In assay [30] the test system is Candida albicans ATCC 10231.
In assay [31] the test system is Klebsiella pneumoniae ATCC 27736.
For assay [32], the system named is Bacillus subtilis ATCC 6633.
For assay [33], the system named is Staphylococcus aureus ATCC 25923.
The test system of assay [34] is Pseudomonas aeruginosa ATCC BAA-427.
Assay [35] relates to Candida parapsilosis ATCC 22019.
The test system of assay [36] is Staphylococcus aureus ATCC 29213.
The test system of assay [37] is Cryptococcus neoformans.
Assay [38] concerns Staphylococcus aureus ATCC BAA-44.
Assay [39] concerns Escherichia coli ATCC 9637.
Assay [40] deals with Staphylococcus aureus ATCC 700698.
Assay [41] relates to Sporothrix schenckii.
Assay [42] relates to Staphylococcus aureus ATCC 33592.
Assay [43] deals with Staphylococcus aureus ATCC 700699.
Assay [44] has as its system Klebsiella pneumoniae ATCC 13883.
The subject of assay [45] is Staphylococcus aureus USA 300.
In assay [46] the test system is Pseudomonas aeruginosa PAO1.
Assay [47] concerns Escherichia coli ATCC 25922.
The test system of assay [48] is Staphylococcus aureus USA 300 LAC.

With `CC[C@H](C)[C@H](NC(=O)[C@H](CCCN=C(N)N)NC(=O)[C@H](CCCN=C(N)N)NC(=O)[C@H](CC(C)C)NC(=O)[C@@H](N)Cc1c[nH]c2ccccc12)C(=O)N[C@@H](CCCCN)C(=O)N[C@@H](C)C(=O)N[C@@H](Cc1c[nH]c2ccccc12)C(=O)N[C@@H](CC(C)C)C(=O)N[C@@H](CCCN=C(N)N)C(=O)N[C@@H](CCCN=C(N)N)C(=O)N[C@@H](CCCCN)C(=O)N[C@@H](CCCN=C(N)N)C(=O)N[C@@H](CCCCN)C(=O)O` [WLRRIKAWLRRKRK], the minimal inhibitory concentration (MIC) in [1] was 4 µM (≈ 7.87 µg/mL); in assay [2], 16 µM (≈ 31.5 µg/mL); in [3], not below 32 µM; in assay [4] it was 16 µM (≈ 31.5 µg/mL); in [5], 4 µM (≈ 7.87 µg/mL); in assay [6], not below 64 µM. The MIC worked out at 16 µM (≈ 31.5 µg/mL) in assay [7]; 16 µM (≈ 31.5 µg/mL) in assay [8]; 8 µM (≈ 15.7 µg/mL) in [9]; 16 µM (≈ 31.5 µg/mL) in [10]; 8 µM (≈ 15.7 µg/mL) in assay [11]; 16 µM (≈ 31.5 µg/mL) in assay [12]. Also, the MIC in assay [13] is 8 µM (≈ 15.7 µg/mL); in assay [14] it was 4 µM (≈ 7.87 µg/mL); in [15] it was 8 µM (≈ 15.7 µg/mL); in [16] it was not below 32 µM; in assay [17], 16 µM (≈ 31.5 µg/mL); in assay [18] it was 16 µM (≈ 31.5 µg/mL). Moreover, the MIC in [19] worked out at 16 µM (≈ 31.5 µg/mL).
For the compound `CC[C@H](C)[C@H](NC(=O)[C@H](CCC(N)=O)NC(=O)[C@H](CCC(=O)O)NC(=O)[C@H](CCCCN)NC(=O)[C@@H]1CCCN1C(=O)[C@H](CC(C)C)NC(=O)[C@H](CS)NC(=O)[C@H](CO)NC(=O)[C@H](CC(C)C)NC(=O)[C@@H](NC(=O)[C@H](C)NC(=O)[C@H](CS)NC(=O)[C@H](CCCN=C(N)N)NC(=O)CNC(=O)CNC(=O)CNC(=O)CNC(=O)[C@H](Cc1c[nH]c2ccccc12)NC(=O)[C@@H](NC(=O)[C@H](Cc1cnc[nH]1)NC(=O)[C@H](CCSC)NC(=O)CNC(=O)[C@@H]1CCCN1C(=O)[C@H](C)NC(=O)[C@H](CC(=O)O)NC(=O)[C@@H]1CCCN1C(=O)[C@H](CC(C)C)NC(=O)[C@H](CCCCN)NC(=O)[C@@H](N)CCCN=C(N)N)[C@@H](C)O)C(C)C)C(=O)O` [RKLPDAPGMHTWGGGGRCAVLSCLPKEQI], the MIC was not below 227 µM in [20], not below 294 µM in assay [21] and not below 208 µM in assay [22].
As to `CC(C)C[C@H](NC(=O)CN)C(=O)N[C@@H](CC(C)C)C(=O)N[C@@H](Cc1c[nH]c2ccccc12)C(=O)N[C@@H](Cc1cnc[nH]1)C(=O)N[C@@H](CC(C)C)C(=O)N[C@@H](CC(C)C)C(=O)N[C@@H](Cc1cnc[nH]1)C(N)=O` [GLLWHLLH], the MIC in [23] is not below 259 µM; in [24], not below 32.4 µM; in assay [25] it was not below 518 µM; in [20], not below 518 µM; in assay [26], not below 130 µM; in assay [27] it was not below 64.8 µM. Further, the MIC in assay [28] and in [29] was not below 130 µM each time.
For `CC[C@H](C)[C@H](NC(=O)[C@H](C)NC(=O)CNC(=O)[C@H](CCCCN)NC(=O)[C@@H](NC(=O)[C@H](CC(C)C)NC(=O)[C@H](Cc1c[nH]c2ccccc12)NC(=O)CNC(=O)[C@H](Cc1ccccc1)NC(=O)[C@@H](N)Cc1ccccc1)[C@@H](C)CC)C(=O)N[C@@H](Cc1cnc[nH]1)C(=O)N[C@@H](C)C(=O)NCC(=O)N[C@@H](CCCCN)C(=O)N[C@@H](C)C(=O)N[C@H](C(=O)N[C@@H](Cc1cnc[nH]1)C(=O)N1CCC[C@H]1C(=O)N[C@@H](CC(C)C)C(=O)N[C@H](C(=O)N[C@@H](Cc1cnc[nH]1)C(=O)N[C@@H](CCCN=C(N)N)C(=O)N[C@@H](CCCN=C(N)N)C(=O)N[C@@H](CCCN=C(N)N)C(=O)N[C@@H](Cc1cnc[nH]1)C(=O)O)[C@@H](C)CC)[C@@H](C)CC` [FFGWLIKGAIHAGKAIHPLIHRRRH], the MIC in assay [30] was 13.6 µM (≈ 39.9 µg/mL); in assay [31], 13.6 µM (≈ 39.9 µg/mL); in [32] it was 3 µM (≈ 8.8 µg/mL); in [33], 3 µM (≈ 8.8 µg/mL); in assay [34], 6.8 µM (≈ 19.9 µg/mL); in assay [35], 13.6 µM (≈ 39.9 µg/mL). The MIC in assay [36] was 6.8 µM (≈ 19.9 µg/mL); in assay [37], 13.6 µM (≈ 39.9 µg/mL); in assay [38] it was 3 µM (≈ 8.8 µg/mL); in assay [39], 3 µM (≈ 8.8 µg/mL); in assay [40], 3 µM (≈ 8.8 µg/mL); in [41], 27.2 µM (≈ 79.8 µg/mL). For the same compound, the MIC came to 1.6 µM (≈ 4.69 µg/mL) in [42] and 3 µM (≈ 8.8 µg/mL) in assay [43].
`CC[C@H](C)[C@H](NC(=O)[C@H](CCCN=C(N)N)NC(=O)[C@H](CCCN=C(N)N)NC(=O)[C@H](CC(C)C)NC(=O)[C@H](CCCN=C(N)N)NC(=O)[C@H](Cc1c[nH]c2ccccc12)NC(=O)[C@@H](N)Cc1c[nH]c2ccccc12)C(=O)N[C@@H](Cc1c[nH]c2ccccc12)C(N)=O` [WWRLRRIW]: the MIC in assay [44] was 25 µM (≈ 31.8 µg/mL); in assay [45] it was 12.5 µM (≈ 15.9 µg/mL); in assay [46], 12.5 µM (≈ 15.9 µg/mL); in [47] it was 25 µM (≈ 31.8 µg/mL); in assay [48] it was 12.5 µM (≈ 15.9 µg/mL).
